# Reference: patent EP3789378A1, “PIPERIDINES OR PIPERIDONES SUBSTITUTED WITH UREA AND HETEROARYL” (Grünenthal GmbH, priority 2019, dated 2021)
# Target: T1, h FPR2 (Homo sapiens, UniProt P25090)
# T1 construct: expressed in transfected cells
# T1 sequence (P25090 1-351): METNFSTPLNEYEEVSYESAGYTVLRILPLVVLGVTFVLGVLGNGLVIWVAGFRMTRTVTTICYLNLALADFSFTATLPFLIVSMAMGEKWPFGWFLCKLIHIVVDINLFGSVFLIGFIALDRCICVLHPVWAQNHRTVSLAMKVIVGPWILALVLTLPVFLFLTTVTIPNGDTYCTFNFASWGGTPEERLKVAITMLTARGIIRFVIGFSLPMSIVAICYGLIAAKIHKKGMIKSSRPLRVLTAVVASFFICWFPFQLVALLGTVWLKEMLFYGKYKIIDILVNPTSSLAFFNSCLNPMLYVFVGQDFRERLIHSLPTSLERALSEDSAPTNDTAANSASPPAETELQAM
# Assay: Agonistic activity in hFPR2-Aq-CHO cells (FLIPR Calcium 5 fluorescence assay)
# Assay type: cell-based
# Conditions: 11 point half log dilution, final assay concentration from 10µM
# How it was run: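 hFPR2-Aq-CHO cells were loaded with Calcium 5 dye for 30 min at 37 °C and equilibrated 10 min at room temperature. Compound (11 points, 10 µM to 100 pM final) was added in HBSS/HEPES/probenecid buffer pH 7.4. Fluorescence rise over basal across 5 min, relative to no-compound wells, gave EC50.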
row,SMILES,EC50 [nM]
1,"O=C(Nc1ccc(Cl)cc1)N[C@@H]1CCN(Cc2cncc(F)c2)C[C@H]1c1ccc(Cl)s1 (relative stereo) [Ex-70, trans-1-(4-chlorophenyl)-3-(3-(5-chlorothiophen-2-yl)-1-((5-fluoropyridin-3-yl)methyl)piperidin-4-yl)urea]",2
2,"COc1cnc([C@@H]2CN(CCN(C)C)CC[C@H]2NC(=O)Nc2ccc(Cl)cc2)c(F)c1 (relative stereo) [Ex-213, trans-1-(4-chloro-phenyl)-3-[1'-(2-dimethylamino-ethyl)-3-fluoro-5-methoxy-1',2',3',4',5',6'-hexahydro-[2,3']bipyridinyl-4'-yl]-urea]",1.05
3,"COc1ccc([C@@H]2CN(C(=O)c3ccc(C(F)(F)F)nc3)CC[C@H]2NC(=O)Nc2ccc(Cl)cc2)nc1 (single isomer, unassigned) [Ex-100, trans-1-(4-chlorophenyl)-3-[3-(5-methoxypyridin-2-yl)-1-{[6-(trifluoromethyl)pyridin-3-yl]carbonyl}piperidin-4-yl]urea]",93
4,"O=C(Nc1ccc(Cl)cc1)N[C@@H]1CCN(C(=O)C2CCNCC2)C[C@H]1c1ccc(Cl)s1 (relative stereo) [Ex-130, trans-1-(4-Chlorophenyl)-3-[3-(5-chloro-thiophen-2-yl)-1-(piperidine-4-carbonyl)-piperidin-4-yl]-urea]",4
5,"CS(=O)(=O)n1ccc(CN2CC[C@@H](NC(=O)Nc3ccccc3)[C@H](c3ccc(Cl)cn3)C2)n1 (relative stereo) [Ex-184, trans-1-[5-chloro-1'-(1-methanesulfonyl-1H-pyrazol-3-ylmethyl)-1',2',3',4',5',6'-hexahydro-[2,3']bipyridinyl-4'-yl]-3-phenyl-urea]",1.4
6,"Cc1cc(CN2CC[C@@H](NC(=O)Nc3ccc(Cl)cc3)[C@H](c3ccc(Cl)cn3)C2)no1 (single isomer, unassigned) [Ex-22, trans-1-(4-chlorophenyl)-3-[3-(5-chloropyridin-2-yl)-1-[(5-methyl-1,2-oxazol-3-yl)methyl]piperidin-4-yl]urea]",0.2

# Second part, the compound after the results:
row,EC50 [nM],SMILES
1,0.3,"COc1ccc([C@@H]2CN(CC(N)=O)CC[C@H]2NC(=O)Nc2ccc(Cl)cc2)nc1 (relative stereo) [Ex-129, trans-2-[4-[[(4-Chlorophenyl)-carbamoyl]amino]-3-(5-methoxy-pyridin-2-yl)-piperidin-1-yl]-acetamide]"
2,58,"COCCCN1CC[C@@H](NC(=O)Nc2ccc(Cl)cc2)[C@H](c2ccc(OC)cn2)C1 (single isomer, unassigned) [Ex-192, trans-1-(4-chlorophenyl)-3-[1-(3-methoxypropyl)-3-(5-methoxypyridin-2-yl)piperidin-4-yl]urea]"
3,1.4,"COc1ccc([C@@H]2CN(CC(C)(C)O)CC[C@H]2NC(=O)Nc2cc(C)ns2)nc1 (single isomer, unassigned) [Ex-177, trans-1-[1-(2-Hydroxy-2-methyl-propyl)-3-(5-methoxy-pyridin-2-yl)-piperidin-4-yl]-3-(3-methyl-isothiazol-5-yl)-urea]"
4,31,"COCCCN1CC[C@@H](NC(=O)Nc2ccccc2)[C@H](c2ccc(OC)cn2)C1 (relative stereo) [Ex-158, trans-1-[1-(3-Methoxy-propyl)-3-(5-methoxy-pyridin-2-yl)-piperidin-4-yl]-3-phenyl-urea]"
5,0.2,"CNCCCN1CC[C@@H](NC(=O)Nc2ccc(Cl)cc2)[C@H](c2ccc(OC)cn2)C1 (relative stereo) [Ex-137, trans-1-(4-Chlorophenyl)-3-[3-(5-methoxy-pyridin-2-yl)-1-(3-methylamino-propyl)-piperidin-4-yl]-urea]"
6,0.9,"COc1ccc([C@@H]2CN(Cc3cnn(S(C)(=O)=O)c3)CC[C@H]2NC(=O)Nc2ccc(C#N)cc2)nc1 (relative stereo) [Ex-140, trans-1-(4-Cyano-phenyl)-3-[3-(5-methoxy-pyridin-2-yl)-1-[(1-methylsulfonyl-1H-pyrazol-4-yl)-methyl]-piperidin-4-yl]-urea]"
7,0.12,"COc1ccc([C@H]2CN(CC3(C(N)=O)CC3)CC[C@@H]2NC(=O)Nc2ccc(Cl)cc2)nc1 [Ex-143, trans-1-[[4-[[(4-Chlorophenyl)-carbamoyl]amino]-3-(5-methoxy-pyridin-2-yl)-piperidin-1-yl]-methyl]-cyclopropane-1-carboxyfic acid amide]"
8,0.7,"COc1cnc([C@@H]2CN(CCS(C)(=O)=O)CC[C@H]2NC(=O)Nc2ccc(Cl)cc2)c(F)c1 (relative stereo) [Ex-196, trans-1-(4-chloro-phenyl)-3-[3-fluoro-1'-(2-methanesulfonyl-ethyl)-5-methoxy-1',2',3',4',5',6'-hexahydro-[2,3']bipyridinyl-4'-yl]-urea]"

# Same assay, conditions: agonistic response at 0.1µM
row,SMILES,activation at 0.1 µM [%]
1,"COc1ccc([C@@H]2CN(C(=O)c3cnccc3C(F)(F)F)CC[C@H]2NC(=O)Nc2ccc(Cl)cc2)nc1 (relative stereo) [Ex-98, trans-1-(4-chlorophenyl)-3-[3-(5-methoxypyridin-2-yl)-1-{[4-(trifluoromethyl)pyridin-3-yl]carbonyl}piperidin-4-yl]urea]",26
2,"O=C(Nc1ccc(Cl)cc1)N[C@@H]1CCN(CC2CCOCC2)C[C@H]1c1ccc(Cl)s1 (relative stereo) [Ex-86, trans-1-(4-chlorophenyl)-3-(3-(5-chlorothiophen-2-yl)-1-((tetrahydro-2H-pyran-4-yl)methyl)piperidin-4-yl)urea]",19
3,"COCCC(=O)N1CC[C@@H](NC(=O)Nc2ccc(Cl)cc2)[C@H](c2ccc(Cl)s2)C1 (relative stereo) [Ex-106, trans-1-(4-chloro-phenyl)-3-[3-(5-chloro-thiophen-2-yl)-1-(3-methoxy-propionyl)-piperidin-4-yl]-urea]",41

# More lines, now with the values ahead:
row,activation at 0.1 µM [%],SMILES
1,25,"COc1ccc([C@@H]2CN(C3CCS(=O)(=O)CC3)CC[C@H]2NC(=O)Nc2cc(C)ns2)nc1 (relative stereo) [Ex-149, trans-1-[1-(1,1-Dioxo-thian-4-yl)-3-(5-methoxy-pyridin-2-yl)-piperidin-4-yl]-3-(3-methyl-isothiazol-5-yl)-urea]"
2,5,"COc1ccc([C@@H]2CN(CC(C)(C)O)CC[C@H]2NC(=O)Nc2cc(C)ns2)nc1 (relative stereo) [Ex-176, trans-1-[1-(2-Hydroxy-2-methyl-propyl)-3-(5-methoxy-pyridin-2-yl)-piperidin-4-yl]-3-(3-methyl-isothiazol-5-yl)-urea]"
